Reference: patent US9029364B2, “2,5-disubstituted thiomorpholine orexin receptor antagonists” (Merck Sharp & Dohme Corp., priority 2011, dated 2015)

Target: human orexin-2 receptor (Homo sapiens (Human), UniProt O43614)
Experiment: radioligand binding assay, orexin-2 receptor (hOX2 Bind hKi)
Settings: membranes from CHO cells expressing OX2 receptor
Description: In a typical experiment the OX1 and OX2 receptor antagonistic activity of the compounds of the present invention was determined in accordance with the following experimental method. For intracellular calcium measurements, Chinese hamster ovary (CHO) cells expressing the rat orexin-1 receptor or the human orexin-2 receptor, are grown in Iscove's modified DMEM containing 2 mM L-glutamine, […], 1% hypoxanthine-thymidine supplement, 100 U/ml penicillin, 100 μg/ml streptomycin and 10% heat-inactivated fetal calf serum (FCS). The cells are seeded at 20,000 cells/well into Becton-Dickinson black 384-well clear bottom sterile plates coated with poly-D-lysine. All reagents were from GIBCO-Invitrogen Corp. The seeded plates are incubated overnight at 37° C. and 5% CO2. Ala-6,12 human orexin-A as the agonist is prepared as a 1 mM stock solution in 1% bovine serum albumin (BSA) and diluted in assay buffer (HBSS containing 20 mM HEPES, 0.1% BSA and 2.5 mM probenecid, pH7.4) for use in the assay at a final concentration of 70 pM. Test compounds are prepared as 10 mM stock solution in DMSO, then diluted in 384-well plates, first in DMSO, then assay buffer. On the day of the assay, cells are washed 3 times with 100 μl assay buffer and then incubated for 60 min (37° C., 5% CO2) in 60 μl assay buffer containing 1 μM Fluo-4AM ester, 0.02% pluronic acid, and 1% BSA. The dye loading solution is then aspirated and cells are washed 3 times with 100 μl assay buffer. 30 μl of that same buffer is left in each well. Within the Fluorescent Imaging Plate Reader (FLIPR, Molecular Devices), test compounds are added to the plate in a volume of 25 μl, incubated for 5 min and finally 25 μl of agonist is added. Fluorescence is measured for each well at 1 second intervals for 5 minutes and the height of each fluorescence peak is compared to the height of the fluorescence peak induced by 70 pM Ala-6,12 orexin-A with buffer in place of antagonist. For each antagonist, IC50 value (the concentration of compound needed to inhibit 50% of the agonist response) is determined. Alternatively, compound potency can be assessed by a radioligand binding assay (described in Bergman et. al. Bioorg. Med. Chem. Lett. 2008, 18, 1425-1430) in which the inhibition constant (Ki) is determined in membranes prepared from CHO cells expressing either the OX1 or OX2 receptor. The intrinsic orexin receptor antagonist activity of a compound which may be used in the present invention may be determined by these assays.
The following tables show representative data for the compounds of the Examples as orexin receptor antagonists as determined by the foregoing assays wherein the hOX2 Ki is a measure of the ability of the test compound to inhibit the action of the human orexin-2 receptor and the hOX1R is a measure of the ability of the test compound to inhibit the action of the rat orexin-1 receptor.

Sequence of human orexin-2 receptor (O43614 whole entry): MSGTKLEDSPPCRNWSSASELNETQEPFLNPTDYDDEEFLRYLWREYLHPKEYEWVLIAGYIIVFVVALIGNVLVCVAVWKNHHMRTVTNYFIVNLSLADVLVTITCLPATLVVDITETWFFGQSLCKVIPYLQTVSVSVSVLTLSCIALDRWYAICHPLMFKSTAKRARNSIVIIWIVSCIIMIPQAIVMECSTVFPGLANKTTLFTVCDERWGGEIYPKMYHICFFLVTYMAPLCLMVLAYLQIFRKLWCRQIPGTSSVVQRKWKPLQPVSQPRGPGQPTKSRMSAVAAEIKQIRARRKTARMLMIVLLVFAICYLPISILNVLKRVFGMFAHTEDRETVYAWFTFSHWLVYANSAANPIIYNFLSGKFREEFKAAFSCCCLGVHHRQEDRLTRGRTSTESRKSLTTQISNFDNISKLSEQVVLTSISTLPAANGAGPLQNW

Compound	Ki [nM]
Cc1cnc(OC[C@H]2CN(C(=O)c3ccccc3-n3nccn3)[C@H](C)CS2)nc1Cl [Example 13, (2R,5R)-2-{[(4-chloro-5-methylpyrimidin-2-yl)oxy]methyl}-5-methyl-4-{[2-(2H-1,2,3-triazol-2-yl)phenyl]carbonyl} thiomorpholine]	7.4
C[C@@H]1C[S+]([O-])[C@@H](COc2ccc(F)cn2)CN1C(=O)c1ccccc1-n1nccn1 (stereo partly drawn) [Example 15, [(2R,5R)-2-{[(5-Fluoropyridin-2-yl)oxy]methyl}-5-methyl-1-oxidothiomorpholin-4-yl][2-(2H-1,2,3-triazol-2-yl)phenyl]methanone]	170
Cc1ccc(-n2nccn2)c(C(=O)N2C[C@H](COc3ccc(F)cn3)SC[C@H]2C)c1 [Example 1, [(2R,5R)-2-{[(5-Fluoropyridin-2-yl)oxy]methyl}-5-methylthiomorpholin-4-yl][5-methyl-2-(2H-1,2,3-triazol-2-yl)phenyl]methanone]	0.38
C[C@@H]1CS[C@@H](COc2ccc(F)cn2)CN1C(=O)c1ccccc1-n1nccn1 [Example 3, (2R,5R)-2-{[(5-fluoropyridin-2-yl)oxy]methyl}-5-methy1-4-{[2-(2H-1,2,3-triazol-2-yl)phenyl]carbonyl} thiomorpholine]	0.9
C[C@@H]1CS[C@@H](COc2ccc(C(F)(F)F)cn2)CN1C(=O)c1ccccc1-n1nccn1 [Example 7, (2R,5R)-5-methyl-4-{[2-(2H-1,2,3-triazol-2-yl)phenyl]carbonyl}-2-({[5-(trifluoromethyl)pyridin-2-yl]oxy}methyl)thiomorpholine]	66
COc1cnc(OC[C@H]2CN(C(=O)c3ccccc3-n3nccn3)[C@H](C)CS2)nc1Cl [Example 14, (2R,5R)-2-{[(4-chloro-5-methoxypyrimidin-2-yl)oxy]methyl}-5-methyl-4-{[2-(2H-1,2,3-triazol-2-yl)phenyl]carbonyl} thiomorpholine]	155
C[C@@H]1CS[C@@H](COc2ccccn2)CN1C(=O)c1ccccc1-n1nccn1 [Example 2, (2R,5R)-5-methyl-2-[(pyridin-2-yloxy)methy1]-4-{[2-(2H-1,2,3-triazol-2-yl)phenyl]carbonyl} thiomorpholine]	15.3
Cc1ccc(OC[C@H]2CN(C(=O)c3ccccc3-n3nccn3)[C@H](C)CS2)nc1 [Example 4, (2R,5R)-5-methyl-2-{[(5-methylpyridin-2-yl)oxy]methyl}-4-{[2-(2H-1,2,3-triazol-2-yl)phenyl]carbonyl} thiomorpholine]	9.7
Cc1ccnc(OC[C@H]2CN(C(=O)c3ccccc3-n3nccn3)[C@H](C)CS2)c1 [Example 10, (2R,5R)-5-methyl-2-{[(4-methylpyridin-2-yl)oxy]methyl}-4-{[2-(2H-1,2,3-triazol-2-yl)phenyl]carbonyl} thiomorpholine]	192
C[C@@H]1CS[C@@H](COc2ncccc2Cl)CN1C(=O)c1ccccc1-n1nccn1 [Example 8, (2R,5R)-2-{[(3-chloropyridin-2-yl)oxy]methyl}-5-methyl-4-{[2-(2H-1,2,3-triazol-2-yl)phenyl]carbonyl} thiomorpholine]	2.5
C[C@@H]1CS[C@@H](COc2ncccc2C#N)CN1C(=O)c1ccccc1-n1nccn1 [Example 9, 2-{[(2R,5R)-5-methy1-4-{[2-(2H-1,2,3-triazol-2-yl)phenyl]carbonyl}thiomorpholin-2-yl]methoxy}pyridine-3-carbonitrile]	150
C[C@@H]1CS[C@@H](COc2ccc(C#N)cn2)CN1C(=O)c1ccccc1-n1nccn1 [Example 6, 6-{[(2R,5R)-5-methy1-4-{[2-(2H-1,2,3-triazol-2-yl)phenyl]carbonyl}thiomorpholin-2-yl]methoxy}pyridine-3-carbonitrile]	47
C[C@@H]1CS[C@@H](CSc2ccccn2)CN1C(=O)c1ccccc1-n1nccn1 [Example 17, {(2R,5R)-5-Methyl-2-[(pyridine-2-ylsulfanyl)methyl]thiomorpholin-4-yl}[2-(2H-1,2,3-triazol-2-yl)phenyl]methanone]	98
C[C@@H]1CS[C@@H](COc2ncccn2)CN1C(=O)c1ccccc1-n1nccn1 [Example 11, (2R,5R)-5-methyl-2-[(pyrimidin-2-yloxy)methy1]-4-{[2-(2H-1,2,3-triazol-2-yl)phenyl]carbonyl} thiomorpholine]	> 4650
Cc1nc(OC[C@H]2CN(C(=O)c3ccccc3-n3nccn3)[C@H](C)CS2)ncc1Cl [Example 12, (2R,5R)-2-{[(5-chloro-4-methylpyrimidin-2-yl)oxy]methyl}-5-methyl-4-{[2-(2H-1,2,3-triazol-2-yl)phenyl]carbonyl} thiomorpholine]	32
C[C@@H]1CS[C@@H](COc2ccc(Cl)cn2)CN1C(=O)c1ccccc1-n1nccn1 [Example 5, (2R,5R)-2-{[(5-chloropyridin-2-yl)oxy]methyl}-5-methyl-4-{[2-(2H-1,2,3-triazol-2-yl)phenyl]carbonyl} thiomorpholine]	1.7
